Measurements published in patent US20220315895A1, “METHODS OF MAKING OLIGOPOTENT AND UNIPOTENT PRECURSORS” (Transfusion Health, LLC, priority 2019, published 2022).

Key:
[1] = test system: CD34+ cells isolated from donor peripheral blood; assay: Enhancement of HSCs derived from non-mobilized peripheral blood with compounds of Formula I (Example 33); assay type: cell-based; details: normalized fold change days 2 to 7
Procedure: CD34+ cells were isolated from donor peripheral blood. Standard buffy coat separation using ficoll paque was performed. Cells were pelleted and incubated with unlabeled CD64 antibody. Cells then underwent negative depletion using biotinylated CD2, CD3, CD4, CD5, CD8, CD11b, CD14, CD16, CD19, CD20, CD45RA, CD56, CD235 (in some examples CD15, CD25 and other lineage specific antibodies may also be used). Cells which bind these antibodies are depleted using streptavidin beads. The enriched progenitor pool then undergoes cell sorting for CD34+.
Isolated CD34+ cells were incubated in an in vitro culture media of Alpha MEM without phenol red with 10% (v/v) heat inactivated fetal bovine serum (FBS). When testing compounds of Formula I, two internal controls were used: a positive control (+SF conditions) and a baseline control (i.e. basic conditions (“cytokines only”)). The media components and concentrations used for the compounds tested are described in [0563] Table 2. The culture also included an antibiotic solution that includes penicillin, streptomycin, and amphotericin B to avoid contamination. Controls were included because the amount of expansion in samples obtained varies from individual to individual.
Cultures were incubated at […] (controlled by nitrogen) and 5% CO2.
Small molecule components were added separately and fresh each time the media needs to be refreshed. Cytokines can be stored together. Media renewal should occur at least every few days.
On the days indicated one-half of the volume of the cell culture was removed for data analysis (flow cytometry using a BD FACS ARIA II). The culture volume was replenished with fresh media according to the conditions tested. The data reported accounts for the dilution factor introduced in this procedure.
Separate experiments were performed for each compound tested (Compound 1.001-1.023).
(§1) Table 3, below, summarizes the relative expansive effect of Compound 1.001 to 1.023 (sample compounds) at the indicated concentration. The data in Table 3 is reported as the relative expansive effect. The relative expansive effect is a normalized value of the fold changes shown in each of FIG. 1-FIG. 23. It is calculated as shown below: […]

[2] = test system: CD34+ cells from cord blood; assay: Expansion of cord blood CD34+ cells, seven-day culture (Example 35); assay type: cell-based, human; details: normalized fold change days 1 to 7
Procedure: CD34+ cells from cord blood were purchased from STEMCELL Technologies. Primary human CD34+ cells were isolated from cord blood samples using positive immunomagnetic separation techniques. Cells were thawed and gradually brought to room temperature. Samples were washed, then placed in overnight culture in StemSpan with 100 ng/ml each of FLT3L, TPO, SCF, and TL-6. Eighteen to twenty-four hours later (day 1), cells were counted and immunophenotyped (flow cytometry on an Invitrogen Attune N×T cytometer).
Approximately 1000 live cells were plated into each well of 96-well plates; exact cell numbers dispensed per well were quantified with flow cytometry for later calculations.
Media for testing compounds of Formula I was prepared using Alpha MEM without phenol red, 10% (v/v) heat inactivated fetal bovine serum. Culture conditions also included an antibiotic solution that includes penicillin, streptomycin, and amphotericin B to avoid contamination. Additional media components and concentrations used for the compounds tested are described in Table 5.
All incubations for this experiment took place at 3% oxygen (controlled by nitrogen) and 5% CO2. Following seven days of culture, cells from wells were collected and phenotypes were analyzed (flow cytometry on an Invitrogen Attune N×T cytometer).
as §1, with “6” for “3,”, “the screened compounds” for “Compound 1.001 to 1.023 (sample compounds)”, “6” for “3”, “the figures.” for “FIG. 1-FIG. 23.”

Row | Compound | CD90 effect (relative expansive effect on CD34+/CD133+/CD90+ cells) ([2]; sample compound 10 μM) | CD133 effect (relative expansive effect on CD34+/CD133+ cells) ([2]; sample compound 10 μM) | CD90 effect (relative expansive effect on CD34+/CD133+/CD90+ cells) ([2]; sample compound 2 μM) | CD133 effect (relative expansive effect on CD34+/CD133+ cells) ([2]; sample compound 2 μM) | further results
1 | CC(C)(C)C(=O)Nc1ccc2c(c1)C(=O)C1CCCC21 (stereo not drawn) [Compound 1.001, N-(8-oxo-1,2,3,3a,8,8a-hexahydrocyclopenta[a]inden-6-yl)pivalamide] |  |  |  |  | CD90 effect (relative expansive effect on CD34+/CD133+/CD90+ cells) ([1]; sample compound 0.5 μM): ++ (0.2 ≤ x < 0.55); CD133 effect (relative expansive effect on CD34+/CD133+ cells) ([1]; sample compound 0.5 μM): + (x < 0.2)
2 | CC(C)(C)C(=O)Nc1ccc2c(c1)C(N)c1ccccc1-2 (stereo not drawn) [Compound 1.015, N-(9-amino-9H-fluoren-2-yl)pivalamide] |  |  |  |  | CD90 effect (relative expansive effect on CD34+/CD133+/CD90+ cells) ([2]; sample compound 0.5 μM): ++ (1.44 ≤ x < 1.8); CD133 effect (relative expansive effect on CD34+/CD133+ cells) ([2]; sample compound 0.5 μM): ++ (1.44 ≤ x < 1.8); CD90 effect (relative expansive effect on CD34+/CD133+/CD90+ cells) ([1]; sample compound 2 μM): ++++ (0.9 ≤ x < 1.25); CD133 effect (relative expansive effect on CD34+/CD133+ cells) ([1]; sample compound 2 μM): +++ (0.55 ≤ x < 0.9)
3 | O=C(Nc1ccc2c(c1)C(O)c1ccccc1-2)c1ccc(O)cc1 (stereo not drawn) [Compound 1.032, 4-hydroxy-N-(9-hydroxy-9H-fluoren-2-yl)benzamide] | ++ (1.44 ≤ x < 1.8) | ++ (1.44 ≤ x < 1.8) |  |  | 
4 | CC(C)(C)C(=O)Nc1ccc2c(c1)C(=O)C1CCCCC21 (stereo not drawn) [Compound 1.002, N-(9-oxo-2,3,4,4a,9,9a-hexahydro-1H-fluoren-7-yl)pivalamide] |  |  |  |  | CD90 effect (relative expansive effect on CD34+/CD133+/CD90+ cells) ([1]; sample compound 16 μM): ++ (0.2 ≤ x < 0.55); CD133 effect (relative expansive effect on CD34+/CD133+ cells) ([1]; sample compound 16 μM): + (x < 0.2)
5 | CC(C)(C)C(=O)Oc1ccc2c(c1)C(O)c1ccccc1-2 (stereo not drawn) [Compound 1.030, 9-hydroxy-9H-fluoren-2-yl pivalate] | +++ (1.8 ≤ x < 2.16) | +++ (1.8 ≤ x < 2.16) |  |  | 
6 | CC(C)(C)Nc1ccc2c(c1)C(=O)c1ccccc1-2 [Compound 1.004, 2-(tert-butylamino)-9H-fluoren-9-one] |  |  |  |  | CD90 effect (relative expansive effect on CD34+/CD133+/CD90+ cells) ([1]; sample compound 8 μM): +++ (0.55 ≤ x < 0.9); CD133 effect (relative expansive effect on CD34+/CD133+ cells) ([1]; sample compound 8 μM): ++ (0.2 ≤ x < 0.55)
7 | CC(C)(C)C(=O)Nc1ccc2c(c1)/C(=N\O)c1ccccc1-2 [Compound 1.028, N-(9-(hydroxyimino)-9H-fluoren-2-yl)pivalamide] |  |  | +++ (1.8 ≤ x < 2.16) | +++ (1.8 ≤ x < 2.16) | 
8 | O=C1c2ccccc2-c2ccccc21 [Compound 1.037] | ++ (1.44 ≤ x < 1.8) | + (x < 1.44) |  |  | 
9 | CC(C)(C)C(=O)Nc1ccc2c(c1)C(C#N)c1ccccc1-2 (stereo not drawn) [Compound 1.026, N-(9-cyano-9H-fluoren-2-yl)pivalamide] |  |  | ++ (1.44 ≤ x < 1.8) | ++ (1.44 ≤ x < 1.8) | 
10 | O=C1c2ccccc2-c2ccc(F)cc21 [Compound 1.020] |  |  |  |  | CD90 effect (relative expansive effect on CD34+/CD133+/CD90+ cells) ([1]; sample compound 16 μM): ++ (0.2 ≤ x < 0.55); CD133 effect (relative expansive effect on CD34+/CD133+ cells) ([1]; sample compound 16 μM): ++ (0.2 ≤ x < 0.55)
11 | CC(=O)Oc1ccc2c(c1)C(=O)c1cc(OC(C)=O)ccc1-2 [Compound 1.027, 9-oxo-9H-fluorene-2,7-diyl diacetate] |  |  | ++ (1.44 ≤ x < 1.8) | ++ (1.44 ≤ x < 1.8) | 
12 | CC(C)(C)C(=O)Nc1ccc2c(c1)C(=O)c1cc(O)ccc1-2 [Compound 1.007, N-(7-hydroxy-9-oxo-9H-fluoren-2-yl)pivalamide] |  |  | ++++ (2.16 ≤ x < 2.52) | ++++ (2.16 ≤ x < 2.52) | CD90 effect (relative expansive effect on CD34+/CD133+/CD90+ cells) ([1]; sample compound 4 μM): ++++ (0.9 ≤ x < 1.25); CD133 effect (relative expansive effect on CD34+/CD133+ cells) ([1]; sample compound 4 μM): +++ (0.55 ≤ x < 0.9)
13 | CN(C)C(=O)Nc1ccc2c(c1)C(O)c1ccccc1-2 (stereo not drawn) [Compound 1.033, 3-(9-hydroxy-9H-fluoren-2-yl)-1,1-dimethylurea] | ++ (1.44 ≤ x < 1.8) | +++ (1.8 ≤ x < 2.16) |  |  | 
